This is an account of results in patent US7655645B2, “Indole derivatives” (N.V. Organon, priority 2007, dated 2010).

This assay deals with T1, human CB1 receptor (Homo sapiens, UniProt P21554).
T1 construct: expressed in transfected cells; host or cells: CHO (Chinese Hamster Ovary) cells
In words: In-vitro determination of efficacy and potency at the human CB1 receptor expressed in CHO cells (luciferase reporter assay). It counts as cell-based. Particulars: CHO cells expressing the human CB1 receptor and a luciferase reporter gene; 5 h incubation at 37° C. As for the experimental part:
Methods to determine receptor binding as well as in vitro biological activity of cannabinoid receptor modulators are well known in the art. In general, expressed receptor is contacted with the compound to be tested and binding or stimulation or inhibition of a functional response is measured.
In-Vitro Determination of Efficacy and Potency at the Human CB1 Receptor Expressed in CHO Cells
Chinese Hamster Ovary (CHO) cells expressing the human CB1 receptor and a luciferase reporter gene were suspended in phenol red/serum free DMEM/F-12 nut mix containing penicillin/streptomycin (50 U/50 μg/ml) and fungizone (1 μg/ml) and seeded into 96 well plates at a density of 3×10^4 cells per well (100 μl final volume). Cells were incubated overnight (approx. 18 h at 37° C., 5% CO2/95% air) prior to assay.
The test compound (10 mM solution in dimethylsulfoxide) was diluted in F12 Nut Mix to give a range of stock solutions from 0.11 mM to 0.11 nM. The stock solutions (10 μl) were added directly to the relevant wells. The plates were incubated at 37° C. for 5 h to allow agonist-induced expression of the luciferase enzyme. Under subdued light, LucLite substrate (Packard; reconstituted as per manufacturer's instructions; 100 μl) was added to each well. Plates were covered with Top Seal and then incubated at room temperature for 5 minutes before counting on the Packard TopCount (single photon counting, 0.01 minute count time, 5 minute count delay).
A “best-fit” curve was fitted by a minimum sum of squares method to the plot of counts per second (CPS) against compound concentration (M) to obtain an EC50 value.
(In general: In a reporter assay the amount or activity of a reporter protein is the signal.)

T1 sequence (P21554 whole entry): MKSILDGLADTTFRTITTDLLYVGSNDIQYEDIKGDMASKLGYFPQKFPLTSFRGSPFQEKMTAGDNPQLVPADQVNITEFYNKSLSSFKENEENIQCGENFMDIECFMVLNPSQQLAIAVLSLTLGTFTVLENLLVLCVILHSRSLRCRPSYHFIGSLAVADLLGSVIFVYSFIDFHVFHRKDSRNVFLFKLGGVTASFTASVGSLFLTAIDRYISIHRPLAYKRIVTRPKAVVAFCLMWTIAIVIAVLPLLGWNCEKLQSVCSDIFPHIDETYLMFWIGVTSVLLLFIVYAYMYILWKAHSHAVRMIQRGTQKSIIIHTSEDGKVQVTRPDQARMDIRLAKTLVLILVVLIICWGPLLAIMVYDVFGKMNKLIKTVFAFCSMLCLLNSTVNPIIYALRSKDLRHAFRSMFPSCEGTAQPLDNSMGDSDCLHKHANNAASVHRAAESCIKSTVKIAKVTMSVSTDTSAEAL

As a reminder, the EC50 is the midpoint of the concentration-response curve. Read a low EC50 as a more potent agent. `NC(=O)CN1CCN(Cc2nc(-c3cn(CC4CCOCC4)c4c(Cl)cccc34)ns2)CC1` [Example 1, 3-({5-[4-(Carbamoylmethyl)piperazin-1-yl]methyl}-[1,2,4]-thiadiazol-3-yl)-7-chloro-1-(tetrahydropyran-4-yl)methyl-1H-indole] had an EC50 of 15.8 nM.
`CCNC(=O)CN1CCN(Cc2nc(-c3cn(CC4CCOCC4)c4c(Cl)cccc34)ns2)CC1` [Example 3, 7-Chloro-3-({5-[4-(ethylcarbamoyl)methylpiperazin-1-yl]methyl}-[1,2,4]-thiadiazol-3-yl)-1-(tetrahydropyran-4-yl)methyl-1H-indole] showed an EC50 of 39.8 nM.
To `CCc1cccc2c(-c3nsc(CN4CCN(CC(=O)NC(C)C)CC4)n3)cn(CC3CCOCC3)c12` [Example 6b, 7-Ethyl-3-({5-[4-(N-isopropylcarbamoyl)methylpiperazin-1-yl]methyl}-[1,2,4]-thiadiazol-3-yl)-1-(tetrahydropyran-4-yl)methyl-1H-indole] belongs 50.1 nM.
Next, `CCc1cccc2c(-c3nsc(CN4CCN(CC(=O)OC)CC4)n3)cn(CC3CCOCC3)c12` [Example 6d, 7-Ethyl-3-({5-[4-(methoxycarbonylmethyl)piperazin-1-yl]methyl}-[1,2,4]-thiadiazol-3-yl)-1-(tetrahydropyran-4-yl)methyl-1H-indole]: 63.1 nM.
To `COc1cccc2c(-c3nsc(CN4CCN(CC(N)=O)CC4)n3)cn(CC3CCOCC3)c12` [Example 7a, 3-({5-[4-(Carbamoylmethyl)piperazin-1-yl]methyl}-[1,2,4]-thiadiazol-3-yl)-7-methoxy-1-(tetrahydropyran-4-yl)methyl-1H-indole] belongs 100 nM; to `NC(=O)CN1CCN(Cc2nc(-c3cn(CC4CCOCC4)c4c(Cl)cccc34)no2)CC1` [Example 11, 3-({5-[4-(Carbamoylmethyl)piperazin-1-yl]methyl}-[1,2,4]-oxadiazol-3-yl)-7-chloro-1-(tetrahydropyran-4-yl)methyl-1H-indole], 79.4 nM.
In the case of `O=S1(=O)CCC(Cn2cc(-c3noc(CN4CCN(Cc5ncon5)CC4)n3)c3cccc(Cl)c32)CC1` [Example 17, 7-Chloro-3-({5-[4-([1,2,4]oxadiazol-3-ylmethyl)piperazin-1-yl]methyl}-[1,2,4]-oxadiazol-3-yl)-1-(1,1-dioxo-hexahydrothiopyran-4-yl)methyl-1H-indole], it took 158 nM to reach a half-maximal effect (EC50).
To `NC(=O)CN1CCCN(Cc2nc(-c3cn(CC4CCOCC4)c4c(Cl)cccc34)no2)CC1` [Example 21d, 3-{5-[4-(Carbamoylmethyl)-homopiperazin-1-ylmethyl]-[1,2,4]-oxadiazol-3-yl}-7-chloro-1-[(tetrahydropyran-4-yl)methyl]-1H-indole] belongs 63.1 nM.
Next, `CNC(=O)CN1CCN(Cc2nc(-c3cn(CC4CCOCC4)c4c(Cl)cccc34)no2)C[C@H]1CO` [Example 24, (S)-7-Chloro-3-[5-[3-hydroxymethyl-4-(methylcarbamoylmethyl)piperazin-1-ylmethyl]-[1,2,4]-oxadiazol-3-yl]-1-[(tetrahydropyran-4-yl)methyl]-1H-indole]: 12.6 nM.
Molecule `NC(=O)CN1CCN(Cc2csc(-c3cn(CC4CCOCC4)c4c(Cl)cccc34)n2)CC1` [Example 31, 3-({4-[4-(Carbamoylmethyl)piperazin-1-yl]methyl}-[1,3]-thiazol-2-yl)-7-chloro-1-(tetrahydropyran-4-yl)methyl-1H-indole] gave a half-maximal effective concentration (EC50) of 63.1 nM.
